US20130224730A1, “PEPTIDE LIGANDS” (ARIZONA BOARD OF REGENTS ACTING FOR AND ON BEHALF OF …, priority 2009, published 2013)

Tests used:
[1] = tested on: G2.4 Minerva nVLP (norovirus-like particles, VP1 capsid protein); test: Peptide affinity column capture and elution of nVLP from tobacco cell lysate; conditions: nVLP1 immobilized on a bead
From the text: Coupling to Support: All 6 candidate peptides were synthesized by solid-phase peptide synthesis using standard FMOC chemistry and subsequently cleaved off the resin. The candidate peptides were attached to an iodoacetyl functionalized affinity matrix at a specifically determined level. The benefits of coupling our peptides to the affinity matrix as opposed to direct synthesis onto the bead are that it allows for greater control of the levels of peptide that are immobilized. The suitability of a ligand for affinity chromatography depends on its ability to bind the target molecule specifically and reversibly with an adequate affinity. […]
To test the recovery yield of the column, cell lysate containing ˜500 μg of VP1 (as measured by SDS-PAGE) was loaded on the column and ˜470 μg of VP1 was recovered for a 94% yield. The dynamic binding capacity of the chromatography media was determined and is defined as the amount of target protein that the media binds under actual flow conditions before significant breakthrough of unbound protein occurs. […]
Briefly, a large volume of VP1 containing lysate was prepared and its absorbance at 280 nm measured. This solution was continually loaded onto the column and the flow through measured for absorbance. The point at which breakthrough occurred, defined as 10% absorbance of the lysate, was used to calculate the binding capacity. […]

[2] = tested on: G1.1 nVLP; test: Peptide affinity column binding and elution of G1.1 nVLP produced in insect cells; design: species or system norovirus; conditions: eluted under same conditions as G2.4 nVLP
From the text: Noroviruses bind to histo-blood group antigens (HBGAs), which are carbohydrates that contain structurally related saccharide moieties, wherein type 1 and type 2 carbohydrate core structures constitute antigenically distinct variants. Several, but not all, noroviruses specifically bind to HBGAs, which are believed to function as receptors for docking and entry into the cell during infection. As previously mentioned, peptide nVLP1 was selected to specifically bind to G2.4 Minerva nVLPs. […] We therefore have identified at ligand that has cross reactivity to G1 and G2 capsid proteins in VLPs, with homology between genogroups I and II around 50%.

With “LLYNKTFPHGRWSPSYPGSC (Peptide Ligand) [nVLP1, 20 mer peptide ligand for norovirus-like particles, optimal ligand]” the “capture of nVLP from cell lysate” value [1] was “able to capture nVLP from cell lysate” and the “binding to G1.1 nVLP (cross reactivity G1/G2)” value [2] was “shown to bind G1.1 nVLP”.
